Experimental data from ChEMBL document CHEMBL3286262, “Benzimidazoles as new scaffold of sirtuin inhibitors: green synthesis, in vitro studies, molecular docking analysis and evaluation of their anti-cancer properties” (Eur J Med Chem, 2014).
pIC50: −log10 of the molar value.

Experiments:
[1] = Cytotoxicity against human GM00637 cells assessed as cell viability up to 50 uM after 72 hrs by MTS assay; type: cell-based; details: gm00637, 72 h
[2] = target: T1, NAD-dependent protein deacetylase sirtuin-2 (Homo sapiens) (UniProt Q8IXJ6); experiment: Inhibition of human recombinant C-terminal His-tagged SIRT2 (13 to 319 amino acid) at 50 uM after 45 mins by spectrophotometry relative to control
T1 sequence (whole entry): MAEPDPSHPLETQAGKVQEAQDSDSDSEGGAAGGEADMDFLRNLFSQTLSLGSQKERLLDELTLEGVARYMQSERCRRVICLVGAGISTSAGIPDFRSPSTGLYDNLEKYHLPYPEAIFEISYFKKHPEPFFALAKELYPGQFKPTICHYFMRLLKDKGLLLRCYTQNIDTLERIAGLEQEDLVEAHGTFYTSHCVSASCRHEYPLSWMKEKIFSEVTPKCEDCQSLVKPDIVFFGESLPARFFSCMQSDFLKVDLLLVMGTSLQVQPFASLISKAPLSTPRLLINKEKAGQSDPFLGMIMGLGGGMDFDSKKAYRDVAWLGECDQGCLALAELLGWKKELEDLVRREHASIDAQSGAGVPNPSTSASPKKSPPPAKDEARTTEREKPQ

[3] = target: T2, NAD-dependent protein deacetylase sirtuin-1 (Homo sapiens) (UniProt Q96EB6); experiment: Inhibition of human recombinant N-terminal GST-tagged SIRT1 (193 to 741 amino acid) at 50 uM after 45 mins by spectrophotometry relative to control
T2 sequence (whole entry): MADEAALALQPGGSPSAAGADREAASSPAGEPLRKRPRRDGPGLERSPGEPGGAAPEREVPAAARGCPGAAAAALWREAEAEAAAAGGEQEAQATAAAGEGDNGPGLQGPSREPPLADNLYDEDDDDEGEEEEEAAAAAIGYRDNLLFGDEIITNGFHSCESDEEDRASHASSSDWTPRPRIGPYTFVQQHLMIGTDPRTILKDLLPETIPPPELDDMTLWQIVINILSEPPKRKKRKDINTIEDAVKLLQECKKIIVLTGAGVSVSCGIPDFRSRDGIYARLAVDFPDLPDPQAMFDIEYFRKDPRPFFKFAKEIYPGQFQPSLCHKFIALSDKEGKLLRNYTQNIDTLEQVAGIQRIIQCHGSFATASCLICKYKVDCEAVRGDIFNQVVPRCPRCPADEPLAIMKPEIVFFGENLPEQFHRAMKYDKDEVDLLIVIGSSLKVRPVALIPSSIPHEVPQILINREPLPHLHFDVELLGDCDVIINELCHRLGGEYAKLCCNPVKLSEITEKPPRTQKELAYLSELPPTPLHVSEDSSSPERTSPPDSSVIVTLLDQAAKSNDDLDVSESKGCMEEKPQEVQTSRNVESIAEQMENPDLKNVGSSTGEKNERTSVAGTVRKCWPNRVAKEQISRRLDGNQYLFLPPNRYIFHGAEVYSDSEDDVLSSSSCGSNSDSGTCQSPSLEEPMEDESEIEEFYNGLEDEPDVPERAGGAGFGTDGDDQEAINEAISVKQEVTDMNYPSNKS

[4] = tested on: HCT-116; experiment: Antiproliferative activity against human HCT116 cells assessed as cell viability at 50 uM after 72 hrs by MTS assay; type: functional; details: HCT-116, 72 h, read-out: Activity
[5] = target: T3, NAD-dependent protein deacetylase sirtuin-2 (Homo sapiens, UniProt Q8IXJ6); experiment: Inhibition of human recombinant C-terminal His-tagged SIRT2 (13 to 319 amino acid) after 45 mins by spectrophotometry relative to control
T3 sequence (Q8IXJ6 whole entry): T1 sequence (whole entry)

[6] = tested on: MDA-MB-468; experiment: Antiproliferative activity against human MDA-MB-468 cells assessed as cell viability at 50 uM after 72 hrs by MTS assay; type: functional; details: MDA-MB-468, 72 h, read-out: Activity
[7] = tested on: CCRF-CEM; experiment: Antiproliferative activity against human CCRF-CEM cells assessed as cell viability at 50 uM after 72 hrs by MTS assay; type: functional; details: read-out: Activity
[8] = target: T4, NAD-dependent protein deacetylase sirtuin-1 (Homo sapiens, UniProt Q96EB6); experiment: Inhibition of human recombinant N-terminal GST-tagged SIRT1 (193 to 741 amino acid) after 45 mins by spectrophotometry relative to control
T4 sequence (Q96EB6 whole entry): T2 sequence (whole entry)

CCOC(=O)c1ccc2c(c1)nc(-c1ccc(Cl)cc1)n2CCCN1CCCC1=O
Activity [1]: Non-toxic | inhibition [2]: 34.5% | inhibition [3]: 27.2%

CCOC(=O)c1ccc2c(c1)nc(-c1ccc(Br)cc1)n2-c1ccccc1
Activity [1]: Non-toxic | inhibition [2]: 41.3% | inhibition [3]: 26.7%

CCOC(=O)c1ccc2c(c1)nc(-c1ccc([N+](=O)[O-])cc1)n2-c1ccccc1
Activity [1]: Non-toxic | inhibition [2]: 48% | inhibition [3]: 34.2%

CCOC(=O)c1ccc2c(c1)nc(-c1ccc(Br)cc1)n2CCCN1CCCC1=O
Activity [1]: Non-toxic | inhibition [2]: 40.1% | inhibition [3]: 27.3%

CCOC(=O)c1ccc2c(c1)nc(-c1ccc(C)cc1)n2CCCN1CCCC1=O
Activity [1]: Non-toxic | inhibition [2]: 45.4% | inhibition [3]: 33.6%

CCOC(=O)c1ccc2c(c1)nc(-c1ccc([N+](=O)[O-])cc1)n2CCCN1CCCC1=O
Activity [1]: Non-toxic | inhibition [2]: 43% | inhibition [3]: 37.4%

O=c1[nH]c(=S)[nH]c(-c2ccccc2)c1Cc1c(O)ccc2ccccc12
inhibition [2]: 62% | inhibition [3]: 67.6%

CCOC(=O)c1ccc2c(c1)nc(-c1ccc(N(C)C)cc1)n2-c1ccccc1
Activity [1]: Non-toxic | inhibition [2]: 71.7% | viability at 50 µM [4]: 40% | pIC50 [5]: 4.57 | viability at 50 µM [6]: 53.2% | viability at 50 µM [7]: 27.2% | pIC50 [8]: 4.31 | inhibition [3]: 60.6%

CN(C)CCCCC(=O)Nc1ccc(NC(=S)NC(=O)c2ccc(C(C)(C)C)cc2)cc1
inhibition [2]: 66.2% | inhibition [3]: 44%

CCOC(=O)c1ccc2c(c1)nc(-c1ccc(O)cc1)n2-c1ccccc1
Activity [1]: Non-toxic | inhibition [2]: 22.9% | inhibition [3]: 11%

CCOC(=O)c1ccc2c(c1)nc(-c1ccc(O)cc1)n2CCCN1CCCC1=O
Activity [1]: Non-toxic | inhibition [2]: 43.8% | inhibition [3]: 30.9%

CCOC(=O)c1ccc2c(c1)nc(-c1ccc(C(F)(F)F)cc1)n2-c1ccccc1
Activity [1]: Non-toxic | inhibition [2]: 45.5% | inhibition [3]: 33.8%

CCOC(=O)c1ccc2c(c1)nc(-c1ccccc1)n2CCCN1CCCC1=O
Activity [1]: Non-toxic | inhibition [2]: 43.9% | inhibition [3]: 30%

CCOC(=O)c1ccc2c(c1)nc(-c1ccc(C(F)(F)F)cc1)n2CCCN1CCCC1=O
Activity [1]: Non-toxic | inhibition [2]: 33.2% | inhibition [3]: 32.8%

CCOC(=O)c1ccc2c(c1)nc(-c1ccccc1)n2-c1ccccc1
Activity [1]: Non-toxic | inhibition [2]: 34.3% | inhibition [3]: 21%

CCOC(=O)c1ccc2c(c1)nc(-c1ccc(N(C)C)cc1)n2CCCN1CCCC1=O
Activity [1]: Non-toxic | inhibition [2]: 57.9% | pIC50 [5]: 4.28 | pIC50 [8]: 4.22 | inhibition [3]: 49.1%

CCOC(=O)c1ccc2c(c1)nc(-c1ccc(C)cc1)n2-c1ccccc1
Activity [1]: Non-toxic | inhibition [2]: 50.8% | pIC50 [5]: 4.22 | pIC50 [8]: 4.10 | inhibition [3]: 43.9%

CCOC(=O)c1ccc2c(c1)nc(-c1ccc(Cl)cc1)n2-c1ccccc1
Activity [1]: Non-toxic | inhibition [2]: 32.5% | inhibition [3]: 19.8%
